Assay results taken from patent US8268840B2, “Pyrimidinyl pyridone inhibitors of kinases” (Roche Palo Alto LLC, priority 2008, dated 2012).

Legend:
Human JNK2α2 = Human JNK2α2 (Homo sapiens, UniProt P45984); experiment: JNK assay in vitro, phosphorylation of GST-ATF2 (19-96) with [γ-33P] ATP; format: biochemical; details: 1 nM enzyme, 1 μM ATF2, 8 μM ATP (Km), 30° C. for 30 min, ten concentration curves; read-out: IC50 JNK2
Experimental: (§1) JNK activity was measured by phosphorylation of GST-ATF2 (19-96) with [γ-^33P] ATP. The enzyme reaction was conducted at Km concentrations of ATP and the substrate at final volume of 40 μl in buffer containing 25 mM HEPES, pH 7.5, 2 mM dithiothreitol, 150 mM NaCl, 20 mM MgCl2, 0.001% Tween® 20, 0.1% BSA and 10% DMSO. Human JNK2α2 assay contains 1 nM enzyme, 1 μM ATF2, 8 μM ATP with 1 uCi [γ-^33P] ATP. Human JNK1α1 assay contains 2 nM enzyme, 1 μM ATF2, 6 μM ATP with 1 μCi [γ-^33P] ATP. Human JNK3 (Upstate Biotech #14-501M) assay contains 2 nM enzyme, 1 μM ATF2, 4 μM ATP with 1 μCi [γ-^33P] ATP. The enzyme assay was carried out in the presence or absence of several compound concentrations. JNK and compound were pre-incubated for 10 min., followed by initiation of the enzymatic reaction by adding ATP and the substrate. The reaction mixture was incubated at 30° C. for 30 min. At the end of incubation, the reaction was terminated by transferring 25 μl of the reaction mixture to 150 μl of 10% glutathione Sepharose® slurry (Amersham #27-4574-01) containing 135 mM EDTA. The reaction product was captured on the affinity resin, and washed on a filtration plate (Millipore, MABVNOB50) with phosphate buffered saline for six times to remove free radionucleotide. The incorporation of ^33P into ATF2 was quantified on a microplate scintillation counter (Packard Topcount). Compound inhibition potency on JNK was measured by IC50 value generated from ten concentration inhibition curves fitted into the 3-parameter model: % inhibition=Maximum/(1+(IC50/[Inhibitor])^slope). Data were analyzed on Microsoft Excel for parameter estimation.

Human JNK1α1 = Human JNK1α1 (Homo sapiens, UniProt P45983); experiment: as above; format: biochemical; details: 2 nM enzyme, 1 μM ATF2, 6 μM ATP (Km), 30° C. for 30 min, ten concentration curves; read-out: IC50 JNK1
Experimental: as §1

Sequence of Human JNK2α2 (P45984 whole entry): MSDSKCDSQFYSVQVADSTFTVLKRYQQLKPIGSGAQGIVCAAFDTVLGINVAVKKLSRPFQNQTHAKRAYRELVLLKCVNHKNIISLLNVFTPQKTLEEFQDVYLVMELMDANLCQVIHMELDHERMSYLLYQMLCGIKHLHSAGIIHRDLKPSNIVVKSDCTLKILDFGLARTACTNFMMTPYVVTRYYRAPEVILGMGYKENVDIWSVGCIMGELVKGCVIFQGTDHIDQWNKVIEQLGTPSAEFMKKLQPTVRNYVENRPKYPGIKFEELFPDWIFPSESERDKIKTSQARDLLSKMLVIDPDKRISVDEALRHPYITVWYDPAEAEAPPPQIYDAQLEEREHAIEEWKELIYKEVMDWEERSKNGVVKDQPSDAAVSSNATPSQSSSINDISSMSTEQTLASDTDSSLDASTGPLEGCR
Sequence of Human JNK1α1 (P45983 1-384 isoform P45983-2): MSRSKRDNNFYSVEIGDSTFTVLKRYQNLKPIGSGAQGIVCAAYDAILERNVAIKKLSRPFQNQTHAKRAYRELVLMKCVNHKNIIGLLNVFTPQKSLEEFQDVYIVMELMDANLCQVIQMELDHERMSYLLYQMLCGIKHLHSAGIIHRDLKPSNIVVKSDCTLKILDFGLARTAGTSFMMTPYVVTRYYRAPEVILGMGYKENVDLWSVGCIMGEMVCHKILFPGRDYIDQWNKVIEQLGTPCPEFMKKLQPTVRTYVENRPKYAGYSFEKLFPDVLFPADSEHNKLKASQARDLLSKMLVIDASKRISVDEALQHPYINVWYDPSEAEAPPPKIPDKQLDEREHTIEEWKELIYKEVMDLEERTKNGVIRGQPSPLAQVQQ

IC50 (Human JNK2α2) [µM]	IC50 (Human JNK1α1) [µM]	melting point [°C]	SMILES
0.0258	0.0111	169.5 to 170	Nc1cc(=O)n([C@@H]2CC[C@@H](O)C2)c2nc(NC3CCCCC3)ncc12 (racemic) [Compound I-1, 5-Amino-2-cyclohexylamino-8-((1R,3R)-3-hydroxy-cyclopentyl)-8H-pyrido[2,3-d]pyrimidin-7-one]
0.0403	0.0179	120 to 121.5	Nc1cc(=O)n(C2CCC2)c2nc(NC3CCCCC3)ncc12 [Compound I-3, 5-Amino-8-cyclobutyl-2-cyclohexylamino-8H-pyrido[2,3-d]pyrimidin-7-one]
0.0439	0.0205	246.5 to 248	Nc1cc(=O)n(C2CCCC2)c2nc(N[C@H]3CC[C@H](O)CC3)ncc12 [Compound I-5, 5-Amino-8-cyclopentyl-2-(4-hydroxy-cyclohexylamino)-8H-pyrido[2,3-d]pyrimidin-7-one]
0.0397	0.0316	185 to 203	Nc1cc(=O)n(C2CCCCC2)c2nc(N[C@H]3CC[C@H](C(=O)N4CCOCC4)CC3)ncc12 [Compound I-7, 5-Amino-8-cyclohexyl-2-[4-(morpholine-4-carbonyl)-cyclohexylamino]-8H-pyrido[2,3-d]pyrimidin-7-one]
0.0377	0.0344	276.6 to 278.4	Cc1c(N)c2cnc(N[C@H]3CC[C@H](C(=O)N4CCCC4)CC3)nc2n(C2CCC2)c1=O [Compound I-9, 5-Amino-8-cyclobutyl-6-methyl-2-[4-(pyrrolidine-1-carbonyl)-cyclohexylamino]-8H-pyrido[2,3-d]pyrimidin-7-one]
		> 300	CC(=O)N[C@H]1CC[C@H](Nc2ncc3c(N)cc(=O)n(CCCO)c3n2)CC1 [Compound I-42, N-{4-[5-Amino-8-(3-hydroxy-propyl)-7-oxo-7,8-dihydro-pyrido[2,3-d]pyrimidin-2-ylamino]-cyclohexyl}-acetamide]
		190 to 191	COC(=O)N[C@H]1CC[C@H](Nc2ncc3c(N)cc(=O)n(CCCO)c3n2)CC1 [Compound I-43, {4-[5-Amino-8-(3-hydroxy-propyl)-7-oxo-7,8-dihydro-pyrido[2,3-d]pyrimidin-2-ylamino]-cyclohexyl}-carbamic acid methyl ester]
		225 to 226	Cc1c(N)c2cnc(NC3CCCCC3)nc2n([C@@H]2CCOC2)c1=O [Compound I-44, 5-Amino-2-cyclohexylamino-6-methyl-8-(R)-tetrahydro-furan-3-yl-8H-pyrido[2,3-d]pyrimidin-7-one]
		128.3 to 130	Nc1cc(=O)n(C2CCCC2)c2nc(Nc3ccccc3)ncc12 [Compound I-45, 5-Amino-8-cyclopentyl-2-phenylamino-8H-pyrido[2,3-d]pyrimidin-7-one]
		135 to 137.4	Nc1cc(=O)n(CC2CC2)c2nc(NC3CCOCC3)ncc12 [Compound I-46, 5-Amino-8-cyclopropylmethyl-2-(tetrahydro-pyran-4-ylamino)-8H-pyrido[2,3-d]pyrimidin-7-one]
		173 to 174	Cc1c(N)c2cnc(N[C@H]3CC[C@H](C(=O)N4CCC(O)CC4)CC3)nc2n([C@@H]2CCOC2)c1=O [Compound I-47, 5-Amino-2-[4-(4-hydroxy-piperidine-1-carbonyl)-cyclohexylamino]-6-methyl-8-(R)-tetrahydro-furan-3-yl-8H-pyrido[2,3-d]pyrimidin-7-one]
		277.5 to 278	CC(C)c1c(N)c2cnc(NC3CCCCC3)nc2n(C2CCC2)c1=O [Compound I-49, 5-Amino-8-cyclobutyl-2-cyclohexylamino-6-isopropyl-8H-pyrido[2,3-d]pyrimidin-7-one]
		235 to 238.2	CCn1c(=O)cc(N)c2cnc(NC3CCOCC3)nc21 [Compound I-50, 5-Amino-8-ethyl-2-(tetrahydro-pyran-4-ylamino)-8H-pyrido[2,3-d]pyrimidin-7-one]
		160 to 164	Nc1cc(=O)n(C2CCCCC2)c2nc(NC3CCOCC3)ncc12 [Compound I-51, 5-Amino-8-cyclohexyl-2-(tetrahydro-pyran-4-ylamino)-8H-pyrido[2,3-d]pyrimidin-7-one]
		> 300	Cc1c(N)c2cnc(NC3CCN(S(C)(=O)=O)CC3)nc2n([C@@H]2CCOC2)c1=O [Compound I-53, 5-Amino-2-(1-methanesulfonyl-piperidin-4-ylamino)-6-methyl-8-(R)-tetrahydro-furan-3-yl-8H-pyrido[2,3-d]pyrimidin-7-one]
		264.4 to 266.8	Nc1cc(=O)n(C2CC2)c2nc(NC3CCOCC3)ncc12 [Compound I-54, 5-Amino-8-cyclopropyl-2-(tetrahydro-pyran-4-ylamino)-8H-pyrido[2,3-d]pyrimidin-7-one]
		236.1 to 239.1	Nc1cc(=O)n(CC2CC2)c2nc(NC3CCC3)ncc12 [Compound I-55, 5-Amino-2-cyclobutylamino-8-cyclopropylmethyl-8H-pyrido[2,3-d]pyrimidin-7-one]
		201.3 to 202.6	CCOC(=O)N1CCC(Nc2ncc3c(N)c(C)c(=O)n(C4CCC4)c3n2)CC1 [Compound I-56, 4-(5-Amino-8-cyclobutyl-6-methyl-7-oxo-7,8-dihydro-pyrido[2,3-d]pyrimidin-2-ylamino)-piperidine-1-carboxylic acid ethyl ester]
		240 to 244.1	Nc1cc(=O)n(C2CCCCC2)c2nc(NC3CCC(F)(F)CC3)ncc12 [Compound I-57, 5-Amino-8-cyclohexyl-2-(4,4-difluoro-cyclohexylamino)-8H-pyrido[2,3-d]pyrimidin-7-one]
		281 to 283	CC(=O)N1CCC(Nc2ncc3c(N)c(C)c(=O)n(C4CCCC4)c3n2)CC1 [Compound I-59, 2-(1-Acetyl-piperidin-4-ylamino)-5-amino-8-cyclopentyl-6-methyl-8H-pyrido[2,3-d]pyrimidin-7-one]
		186 to 187	Cc1ccccc1Nc1ncc2c(N)c(C)c(=O)n(C3CCC3)c2n1 [Compound I-62, 5-Amino-8-cyclobutyl-6-methyl-2-o-tolylamino-8H-pyrido[2,3-d]pyrimidin-7-one]
		221.9 to 223.8	Nc1cc(=O)n(Cc2ccccc2)c2nc(NC3CCCCC3)ncc12 [Compound I-66, 5-Amino-8-benzyl-2-cyclohexylamino-8H-pyrido[2,3-d]pyrimidin-7-one]
		256 to 257	CC(=O)c1c(N)c2cnc(NC3CCCCC3)nc2n(C2CCC2)c1=O [Compound I-68, 6-Acetyl-5-amino-8-cyclobutyl-2-cyclohexylamino-8H-pyrido[2,3-d]pyrimidin-7-one]
		245.6 to 246.8	Nc1cc(=O)n(Cc2ccccc2)c2nc(NC3CCOCC3)ncc12 [Compound I-69, 5-Amino-8-benzyl-2-(tetrahydro-pyran-4-ylamino)-8H-pyrido[2,3-d]pyrimidin-7-one]
		213 to 214	Cc1cccc(C)c1Nc1ncc2c(N)c(C)c(=O)n(C3CCC3)c2n1 [Compound I-70, 5-Amino-8-cyclobutyl-2-(2,6-dimethyl-phenylamino)-6-methyl-8H-pyrido[2,3-d]pyrimidin-7-one]
